Data reported in publication PMC10803810, “Interaction of designed cationic antimicrobial peptides with the outer membrane of gram-negative bacteria” (Scientific Reports, 2024).

Experiments:
[1] = system: laboratory strain of B. subtilis; experiment: Minimum inhibitory concentration (MIC) assay; type: cell-based, Bacillus subtilis; settings: MHB, 10^5 CFU/well, peptide 0-50 μM, 37 °C, 20 h, OD600; average of n = 6 replicates from N = 3 biological experiments
Procedure: (§1) Figure 1 Minimum inhibitory concentrations (MICs) for the present peptide library against three clinical isolates of MDR P. aeruginosa and a laboratory strain of B. subtilis. Increasing concentrations of peptides were independently incubated with bacterial cells for 20 h. MIC was calculated based on bacterial growth in an untreated control and in 1% Triton. Data represent the average from n = 6 replicates from N = 3 biological experiments performed on different days; error bars depict the standard error of the mean. Asterisk denotes MIC values beyond the highest tested concentration (50 μM). TEXT PRINTED IN THE PICTURE: Ponericin W1: Isolate 004B1-3 MIC (μM): 1.17; Isolate 035B7-1 MIC (μM): 2.86; Isolate 014B2-1 MIC (μM): 4.68; B. subtilis MIC (μM): 0.65 | PonAmp: Isolate 004B1-3 MIC (μM): 1.56; Isolate 035B7-1 MIC (μM): 2.60; Isolate 014B2-1 MIC (μM): 3.12; B. subtilis MIC (μM): 0.52 | PonN: Isolate 004B1-3 MIC (μM): 1.56; Isolate 035B7-1 MIC (μM): 2.60; Isolate 014B2-1 MIC (μM): 5.20; B. subtilis MIC (μM): 1.56 | PonC: Isolate 004B1-3 MIC (μM): 1.30; Isolate 035B7-1 MIC (μM): 1.56; Isolate 014B2-1 MIC (μM): 2.86; B. subtilis MIC (μM): 1.30 | PonAmp 2A: Isolate 004B1-3 MIC (μM): 11.46; Isolate 035B7-1 MIC (μM): 50; Isolate 014B2-1 MIC (μM): 50; B. subtilis MIC (μM): 0.85 | PonN 2A: Isolate 004B1-3 MIC (μM): 1.82; Isolate 035B7-1 MIC (μM): 1.82; Isolate 014B2-1 MIC (μM): 5.20; B. subtilis MIC (μM): 2.08 | PonC 2A: Isolate 004B1-3 MIC (μM): 2.08; Isolate 035B7-1 MIC (μM): 3.64; Isolate 014B2-1 MIC (μM): 6.25; B. subtilis MIC (μM): 1.04 | PonAmp 3A: B. subtilis MIC (μM): 0.78 | PonN 3A: Isolate 004B1-3 MIC (μM): 4.69; Isolate 035B7-1 MIC (μM): 16.67; Isolate 014B2-1 MIC (μM): 23; B. subtilis MIC (μM): 8.30 | PonC 3A: Isolate 004B1-3 MIC (μM): 5.73; Isolate 035B7-1 MIC (μM): 33.33; Isolate 014B2-1 MIC (μM): 50; B. subtilis MIC (μM): 1.56 | PonAmp 4A: B. subtilis MIC (μM): 3.12 | PonN 4A: B. subtilis MIC (μM): 12.5 | PonC 4A: B. subtilis MIC (μM): 10.42
(§2) Three clinical isolates of MDR P. aeruginosa were previously obtained from CF patients with chronic infection at the Hospital for Sick Children [Research Ethics Board (REB) #1000019444] (Toronto, Canada) and selected for use in this work along with a laboratory strain of B. subtilis. Serial dilutions of peptides (10 μL) were prepared to achieve concentrations from 50 to 0 μM on a sterile 96-well clear bottom plate. Cells were resuspended in Mueller − Hinton Broth (MHB) and added at 10^5 CFU/well to achieve a final volume of 100 μL. Peptide and bacteria were allowed to incubate at 37 °C for 20 h. OD600 was measured at the end of the incubation period. Reports of MIC are background subtracted from an MHB-only control.

[2] = system: MDR P. aeruginosa clinical isolate 004B1-3; experiment: Minimum inhibitory concentration (MIC) assay; type: cell-based, Pseudomonas aeruginosa; settings: MHB, 10^5 CFU/well, peptide 0-50 μM, 37 °C, 20 h, OD600; average of n = 6 replicates from N = 3 biological experiments; asterisk = beyond 50 μM
Procedure: as §1
(§3) Clinical isolates of P. aeruginosa [Research Ethics Board (REB) #1000019444] were obtained with informed consent from CF patients with chronic infection followed at the Hospital for Sick Children (Toronto, Canada)[66]. Consent was obtained from a parent or legal guardian if not of age. All methods were performed in accordance with the relevant guidelines and regulations for research involving human subjects at the Hospital for Sick Children. Antimicrobial susceptibility testing was performed as per the Clinical Laboratory Standards Institute (CLSI)[67].
as §2

[3] = system: MDR P. aeruginosa clinical isolate 014B2-1; experiment: Minimum inhibitory concentration (MIC) assay; type: cell-based, Pseudomonas aeruginosa; settings: MHB, 10^5 CFU/well, peptide 0-50 μM, 37 °C, 20 h, OD600; average of n = 6 replicates from N = 3 biological experiments; asterisk = beyond 50 μM
Procedure: as §1, §3, §2

[4] = system: MDR P. aeruginosa clinical isolate 035B7-1; experiment: Minimum inhibitory concentration (MIC) assay; type: cell-based, Pseudomonas aeruginosa; settings: MHB, 10^5 CFU/well, peptide 0-50 μM, 37 °C, 20 h, OD600; average of n = 6 replicates from N = 3 biological experiments; asterisk = beyond 50 μM
Procedure: as §1, §3, §2

[5] = system: MDR isolates of P. aeruginosa; type: cell-based, Pseudomonas aeruginosa; settings: for average MIC against MDR P. aeruginosa isolates: average over the clinical isolates
Text: We began our investigations by testing the antimicrobial efficacy of our peptide library against P. aeruginosa, an opportunistic gram-negative bacterium found in patients with cystic fibrosis (CF)[44],[45]. MDR isolates of P. aeruginosa obtained from chronically infected CF patients were independently challenged with the peptide library using a minimum inhibitory concentration assay (MIC, defined as the lowest drug concentration required to inhibit bacterial growth). […] A similar trend is observed among the 3A analogs. At four Leu-to-Ala substitutions, activity is universally lost as the sequences no longer meet the minimum hydrophobicity threshold for spontaneous membrane insertion.
Figure 1 Minimum inhibitory concentrations (MICs) for the present peptide library against three clinical isolates of MDR P. aeruginosa and a laboratory strain of B. subtilis. Increasing concentrations of peptides were independently incubated with bacterial cells for 20 h. MIC was calculated based on bacterial growth in an untreated control and in 1% Triton. Data represent the average from n = 6 replicates from N = 3 biological experiments performed on different days; error bars depict the standard error of the mean. Asterisk denotes MIC values beyond the highest tested concentration (50 μM). […]
Three clinical isolates of MDR P. aeruginosa were previously obtained from CF patients with chronic infection at the Hospital for Sick Children [Research Ethics Board (REB) #1000019444] […] OD600 was measured at the end of the incubation period. […]

[6] = system: LPS from P. aeruginosa 10; experiment: Dansyl-polymyxin (DPX) displacement assay; type: binding, Pseudomonas aeruginosa; settings: 3 μg/mL LPS saturated by 2.5 μM DPX, peptide added in 1 μM increments up to 10 μM, 10 mM Tris 10 mM NaCl pH 7.4; ex 340 / em 485 nm; n = 3
Text: We then sought to evaluate whether the relative trends in antimicrobial efficacy observed between Lys-clustered versus helical amphipathic sequences against gram-negative bacteria correlate to their degree of interaction with the OM. In doing so, we tested the binding affinity of our peptide library to LPS using a Dansyl-Polymyxin (DPX) displacement assay. DPX is a fluorescently-tagged derivative of Polymyxin B that highly associates with polyanionic sites on LPS[46]. Dansyl fluorescence reaches a maximum when surrounded by a hydrophobic environment (ex. lipid A moiety of LPS), thereby enabling us to track bound and unbound states of the LPS-DPX complex. First, we empirically determined the concentration of DPX required to completely saturate a set quantity of LPS in solution (Fig. 2). Upon identifying the saturation threshold, we assessed the ability of our peptide library to outcompete for LPS binding by displacing bound DPX. […] High sequence hydrophobicity is observed to supplement peptide propensity to displace DPX as the binding affinity of PonN and PonC to LPS progressively weakens with increasing Leu-to-Ala substitutions (Fig. 3b–d).
Lyophilized stocks of LPS from P. aeruginosa 10 (#L9143) and Dansyl-labelled polymyxin B (DPX) suspended in water (#SBR00029) were purchased from Sigma. 1 mg/mL LPS was prepared in water and stored at 4 °C until use. As described in detail elsewhere, saturation of the LPS-DPX complex was first determined on a Photon Technology International fluorometer using a 1 cm cuvette. Stepwise additions of DPX (in 0.25 μM increments up to 5 μM) was added to 3 μg/mL LPS suspended in 10 mM Tris 10 mM NaCl buffer at pH 7.4. DPX fluorescence was excited at 340 nm (2 nm slit width) and emission was recorded at 485 nm (5 nm slit width).
To measure DPX displacement, peptides were independently added at 1 μM increments (up to 10 μM) to preparations containing 3 μg/mL LPS saturated by 2.5 μM DPX. DPX fluorescence was read immediately upon peptide addition. Drops in fluorescence are interpreted as the removal of DPX from LPS due to competitive binding by peptide.

[7] = in vitro dye release; cited from earlier work
Text: In contrast, Lys-clustered PonN and PonC have been previously found to exclusively adopt random coils when exposed to liposomes composed of an approximate 3:1 ratio of PE:PG phospholipids, representative of the bacterial IM[37]. The latter configuration ostensibly deters peptide capacity for pore formation and/or carpeted assembly compared to helical amphipathic constructs such as PonAmp, which continues to display high helical propensity at both membrane interfaces. The comparatively shallow and/or transient nature of interaction between Lys-clustered constructs and the IM interface was f ...

human red blood cells = settings: up to 50 μM; cited from earlier work
Text: In designing the Ponericin peptide library, our principal goal is to gauge systematically how the relative distribution of charged residues influences peptide-membrane interactions. As well, hydrophobicity is of particular interest to our investigations as earlier studies on the Ponericin W1 library reveal the highly toxic nature of native Ponericin W1 against mammalian red blood cells. Thus, stepwise Leu-to-Ala substitutions (up to four substitutions) were subsequently applied to each parent analog to simultaneously evaluate the contribution of overall sequence hydrophobicity. All peptide ...

Row | Substance | MIC, B. subtilis [1] [µM] | MIC, Isolate 004B1-3 [2] [µM] | MIC, Isolate 014B2-1 [3] [µM] | MIC, Isolate 035B7-1 [4] [µM] | average MIC against MDR P. aeruginosa isolates [5] | Displacement of DPX from LPS (change in DPX fluorescence) [6] | Rupture of liposome mimetics of the bacterial IM (dye release) [7] | MIC against MDR P. aeruginosa isolates ([5]; three clinical isolates from CF patients, isolate not specified, 20 h, highest tested 50 μM) [µM] | Toxicity against mammalian red blood cells (human red blood cells)
1 | H-KKKKKKWAGSAAIGAALPSVVGAFQ-NH2 [PonN 4A] | 12.5 | – | – | – | – | – | – | – | –
2 | H-KKKKKKWAGSAAIGAALPSVVGLFQ-NH2 [PonN 3A] | 8.30 | 4.69 | 23 | 16.67 | – | – | – | – | –
3 | H-KKKKKKWAGSAAIGALLPSVVGLFQ-NH2 [PonN 2A] | 2.08 | 1.82 | 5.20 | 1.82 | ~ 3 μM | – | – | – | –
4 | H-KKKKKKWLGSALIGALLPSVVGLFQ-NH2 [PonN] | 1.56 | 1.56 | 5.20 | 2.60 | – | highly interrupt the LPS-DPX complex | more gradually | – | –
5 | H-WAGSAAIGAALPSVVGAFQKKKKKK-NH2 [PonC 4A] | 10.42 | – | – | – | – | – | – | – | –
6 | H-WAGSAAIGAALPSVVGLFQKKKKKK-NH2 [PonC 3A] | 1.56 | 5.73 | 50 | 33.33 | – | – | – | – | –
7 | H-WAGSAAIGALLPSVVGLFQKKKKKK-NH2 [PonC 2A] | 1.04 | 2.08 | 6.25 | 3.64 | ~ 4 μM | – | – | – | –
8 | H-WAKKAAKIGAKALPSVVKAFKGSGQ-NH2 [PonAmp 4A] | 3.12 | – | – | – | – | – | – | – | –
9 | H-WAKKAAKIGAKALPSVVKLFKGSGQ-NH2 [PonAmp 3A] | 0.78 | – | – | – | – | – | – | – | –
10 | H-WAKKAAKIGAKLLPSVVKLFKGSGQ-NH2 [PonAmp 2A] | 0.85 | 11.46 | 50 | 50 | – | – | – | 50 | –
11 | H-WLGSALIGALLPSVVGLFQKKKKKK-NH2 [PonC] | 1.30 | 1.30 | 2.86 | 1.56 | – | highly interrupt the LPS-DPX complex | more gradually | – | –
12 | H-WLGSALKIGAKLLPSVVGLFKKKKQ-NH2 [Ponericin W1, reference compound] | 0.65 | 1.17 | 4.68 | 2.86 | – | negligible change in fluorescence | – | – | highly toxic
13 | H-WLKKALKIGAKLLPSVVKLFKGSGQ-NH2 [PonAmp] | 0.52 | 1.56 | 3.12 | 2.60 | – | negligible change in fluorescence | ruptured instantaneously | – | –
